Results: the NIST ThermoML archive (doi:10.1021/je100610v)

Experiment: xn = mol fraction of the nth substance listed
Conditions: 101 kPa, Liquid; for speed of sound: Pulse-echo method

ClCCCCCCCl [1,6-dichlorohexane] + CCCCCCC
Conditions	mass density [kg/m3]	speed of sound [m/s]
292.49 K, x1 = 0.3004	–	1199.1
292.56 K, x1 = 0.6998	–	1276.9
292.79 K, x1 = 0.4999	–	1235
292.8 K, x1 = 0.8001	–	1297
292.8 K, x1 = 0.8957	–	1316.3
292.81 K, x1 = 0.1999	–	1181.6
292.81 K, x1 = 0.6004	–	1255
292.91 K, x1 = 0.4	–	1215.3
292.92 K, x1 = 0.1014	–	1167.6
293.01 K, x1 = 1	–	1337.8
293.15 K, x1 = 0.0998	722.22	–
293.15 K, x1 = 0.1999	760.97	–
293.15 K, x1 = 0.2998	799.74	–
293.15 K, x1 = 0.4001	838.66	–
293.15 K, x1 = 0.5001	877.38	–
293.15 K, x1 = 0.6002	916.12	–
293.15 K, x1 = 0.7	954.46	–
293.15 K, x1 = 0.8002	992.78	–
293.15 K, x1 = 0.9001	1030.7	–
293.15 K, x1 = 1	1068.33	–
298.15 K, x1 = 0.0998	717.96	–
298.15 K, x1 = 0.1999	756.72	–
298.15 K, x1 = 0.2998	795.42	–
298.15 K, x1 = 0.4001	834.33	–
298.15 K, x1 = 0.5001	873.04	–
298.15 K, x1 = 0.6002	911.75	–
298.15 K, x1 = 0.7	950.12	–
298.15 K, x1 = 0.8002	988.4	–
298.15 K, x1 = 0.9001	1026.11	–
298.15 K, x1 = 1	1063.61	–
298.16 K, x1 = 0.6998	–	1256.2
298.16 K, x1 = 0.8957	–	1297.1
298.17 K, x1 = 0.3004	–	1176.1
298.17 K, x1 = 0.4999	–	1214.5
298.18 K, x1 = 1	–	1319.7
298.2 K, x1 = 0.4	–	1195
298.2 K, x1 = 0.8001	–	1277.5
298.21 K, x1 = 0.1014	–	1145.5
298.21 K, x1 = 0.1999	–	1159.4
298.21 K, x1 = 0.6004	–	1235.2
303.14 K, x1 = 0.4999	–	1195.5
303.14 K, x1 = 0.6998	–	1237.9
303.14 K, x1 = 0.8957	–	1279.5
303.15 K, x1 = 0.0998	713.61	–
303.15 K, x1 = 0.1999	752.3	–
303.15 K, x1 = 0.2998	791	–
303.15 K, x1 = 0.3004	–	1156.1
303.15 K, x1 = 0.4001	830	–
303.15 K, x1 = 0.5001	868.59	–
303.15 K, x1 = 0.6002	907.23	–
303.15 K, x1 = 0.7	945.63	–
303.15 K, x1 = 0.8002	983.71	–
303.15 K, x1 = 0.9001	1021.49	–
303.15 K, x1 = 1	1058.87	1302.4
303.19 K, x1 = 0.4	–	1175.5
303.19 K, x1 = 0.8001	–	1259.6
303.2 K, x1 = 0.1014	–	1124.7
303.2 K, x1 = 0.1999	–	1138.9
303.2 K, x1 = 0.6004	–	1216.8
308.12 K, x1 = 0.6998	–	1219.8
308.12 K, x1 = 0.8957	–	1261.9
308.13 K, x1 = 0.3004	–	1136.2
308.13 K, x1 = 0.4999	–	1176.5
308.14 K, x1 = 1	–	1285
308.15 K, x1 = 0.0998	709.34	–
308.15 K, x1 = 0.1999	748.07	–
308.15 K, x1 = 0.2998	786.58	–
308.15 K, x1 = 0.4001	825.61	–
308.15 K, x1 = 0.5001	864.37	–
308.15 K, x1 = 0.6002	902.95	–
308.15 K, x1 = 0.7	941.1	–
308.15 K, x1 = 0.8002	979.09	–
308.15 K, x1 = 0.9001	1016.82	–
308.15 K, x1 = 1	1054.14	–
308.17 K, x1 = 0.4	–	1156.1
308.18 K, x1 = 0.1014	–	1104
308.18 K, x1 = 0.6004	–	1198.3
308.18 K, x1 = 0.8001	–	1241.7
308.19 K, x1 = 0.1999	–	1118.6
313.15 K, x1 = 0.0998	704.96	–
313.15 K, x1 = 0.1999	743.68	–
313.15 K, x1 = 0.2998	782.17	–
313.15 K, x1 = 0.4001	821.26	–
313.15 K, x1 = 0.5001	859.93	–
313.15 K, x1 = 0.6002	898.61	–
313.15 K, x1 = 0.7	936.7	–
313.15 K, x1 = 0.8002	974.58	–
313.15 K, x1 = 0.9001	1012.12	–
313.15 K, x1 = 1	1049.39	–
313.21 K, x1 = 0.3004	–	1116.2
313.21 K, x1 = 0.6998	–	1201.4
313.21 K, x1 = 0.8957	–	1244
313.22 K, x1 = 0.4999	–	1157.3
313.23 K, x1 = 1	–	1267.4
313.25 K, x1 = 0.1014	–	1082.9
313.26 K, x1 = 0.4	–	1136.5
313.26 K, x1 = 0.8001	–	1223.6
313.28 K, x1 = 0.1999	–	1098
313.28 K, x1 = 0.6004	–	1179.5
